Measurements reported in patent publication US20040166575A1, “Inosine producing bacterium belonging to the genus Bacillus and method for producing inosine” (priority 2003, published 2004).
Where “and” joins values, the source holds several entries; their conditions need not be identical. Equal values may be shown once.

Columns and labels:
[1] = system: 6-ethoxypurine-resistant strain EP1 (AJ13937); assay: Assay for degree of 6-ethoxypurine resistance: colony growth on minimal medium plate, EP1 strain; format: cell-based, Bacillus subtilis; conditions: for Relative growth degree / Diameter of colony: EP1; for Relative growth degree: colony diameter with 2000 mg/L 6-ethoxypurine / without ×100; for Diameter of colony: minimal medium plate containing 6-ethoxypurine (2000 μg/mL)
[2] = system: Bacillus subtilis recombinant strain KMBS16 (purR, purA, deoD deficient); assay: Assay for degree of 6-ethoxypurine resistance: colony growth on minimal medium plate, parent strain; format: cell-based; conditions: for Relative growth degree / Diameter of colony: KMBS16; for Relative growth degree: colony diameter with 2000 mg/L 6-ethoxypurine / without ×100; for Diameter of colony: minimal medium plate containing 6-ethoxypurine (2000 μg/mL)
[3] = system: 6-ethoxypurine-resistant strain EP2; assay: Assay for degree of 6-ethoxypurine resistance: colony growth on minimal medium plate, EP2 strain; format: cell-based, Bacillus subtilis; conditions: for Relative growth degree / Diameter of colony: EP2; for Relative growth degree: colony diameter with 2000 mg/L 6-ethoxypurine / without ×100; for Diameter of colony: minimal medium plate containing 6-ethoxypurine (2000 μg/mL)
Description: Relative growth degree (%)=[colony diameter (mm) observed in the medium containing 6-ethoxypurine]/[colony diameter (mm) observed in the medium not containing 6-ethoxypurine]×100
The Bacillus subtilis recombinant strain KMBS16 deficient in the purine operon repressor gene (purR), succinyl-AMP synthase gene (purA) and purine nucleoside phosphorylase gene (deoD) was treated with 400 μg/ml of nitrosoguanidine (NTG) at 37° C. for 30 minutes. Then, the NTG-treated cell suspension was spread on a minimal medium (20 g/L of glucose, 5 g/L of ammonium chloride, 4 g/L of potassium dihydrogenphosphate, 0.01 g/L of ferrous sulfate, 0.01 g/L of manganese sulfate, 0.5 g/L of sodium citrate, 1.0 g/L of L-glutamic acid, 0.1 g/L of adenine, 50 mg/L of tryptophan, pH 7.0) plate containing 2000 mg/L of 6-ethoxypurine, and the cells were cultured at 37° C. for 24 hours. […] The EP1 strain was given a private number of AJ13937. This strain was deposited at the independent administrative agency, National Institute of Advanced Industrial Science and Technology, International Patent Organism Depositary (Tsukuba Central 6, 1-1, Higashi 1-Chome, Tsukuba-shi, Ibaraki-ken, 305-8566, Japan) on Dec. 25, 2001 and received an accession number of FERM P-18665. Then, it was transferred to an international deposit under the provisions of the Budapest Treaty on Jan. 14, 2004, and received an accession number of FERM BP-08595.
Degree of 6-ethoxypurine resistance of the mutant strain obtained as described above was examined in detail. The parent strain and the mutant strain were adenine auxotrophic, and the drug used was a purine analogue. Therefore, the amount of adenine added to the minimal medium was limited to the required minimum level (2 mg/L in this example).
The 6-ethoxypurine-resistant strains (EP1 strain and EP2 strain) and the parent strain KMBS16 were each inoculated into the minimum liquid medium and cultured overnight at 34° C. The cells were separated from the culture broth by centrifugation, washed three times with the minimal medium and suspended again in the same medium. The suspension was appropriately diluted with the same medium and spread on a minimal medium plate and a minimal medium plate containing 2000 mg/L of 6-ethoxypurine, and the cells were cultured at 34° C. […] The culture was continued even thereafter, and diameters of several single colonies were measured after […] to 66 hours. An average of colony diameters was calculated for each strain, and the relative growth degree was calculated according to the aforementioned equation.
In the tables, the symbol “−” means that no colony could be confirmed, and the symbol “±” means that since the colonies were indefinite, the diameters could not be measured.

**Q.** How did the Relative growth degree ([1]; 0 hr) turn out when CCOc1ncnc2nc[nH]c12 [6-ethoxypurine] was run?
**A.** Its Relative growth degree is 0%.

**Q.** What about the Relative growth degree ([1]; 42 hr) of the same compound?
**A.** The Relative growth degree was 80.0% and 100.0%.

**Q.** What about the Relative growth degree ([1]; 45 hr) of the same compound?
**A.** Its Relative growth degree is 83.3%.

**Q.** What about the Relative growth degree ([1]; 48 hr) of the same compound?
**A.** The Relative growth degree was 80.0%.

**Q.** And the Relative growth degree ([1]; 52 hr)?
**A.** Its Relative growth degree is 100.0%.

**Q.** What about the Diameter of colony ([1]; 34° C., 28 hr) of the same compound?
**A.** Its Diameter of colony is “±”.

**Q.** And the Diameter of colony ([1]; 34° C., 42 hr)?
**A.** Its Diameter of colony is 1.00 mm and 0.80 mm.

**Q.** And the Diameter of colony ([1]; 34° C., 45 hr)?
**A.** The Diameter of colony was 1.20 mm and 1.00 mm.

**Q.** What about the Diameter of colony ([1]; 34° C., 48 hr) of the same compound?
**A.** Its Diameter of colony is 1.50 mm and 1.20 mm.

**Q.** And the Diameter of colony ([1]; 34° C., 52 hr)?
**A.** The Diameter of colony was 1.50 mm.

**Q.** What about the Diameter of colony ([1]; 34° C., 66 hr) of the same compound?
**A.** The Diameter of colony was 2.00 mm and 2.50 mm.

**Q.** And the “colony formation after 24 hours” value ([1]; EP1 strain, minimal medium plate containing 2000 mg/L of 6-ethoxypurine, 34° C., 24 hours)?
**A.** Its value is “minute colonies were confirmed”.

**Q.** What about the Relative growth degree ([2]; 0 hr) of the same compound?
**A.** The Relative growth degree was 0%.

**Q.** And the Relative growth degree ([2]; 42 hr)?
**A.** Its Relative growth degree is 50.0% and 40.0%.

**Q.** And the Relative growth degree ([2]; 45 hr)?
**A.** Its Relative growth degree is 58.3% and 41.7%.

**Q.** And the Relative growth degree ([2]; 48 hr)?
**A.** Its Relative growth degree is 66.7% and 50.0%.

**Q.** What about the Relative growth degree ([2]; 52 hr) of the same compound?
**A.** The Relative growth degree was 66.7%.

**Q.** What about the Relative growth degree ([2]; 66 hr) of the same compound?
**A.** The Relative growth degree was 62.5% and 50.0%.

**Q.** What about the Diameter of colony ([2]; 34° C., 28 hr) of the same compound?
**A.** The Diameter of colony was “−”.

**Q.** What about the Diameter of colony ([2]; 34° C., 42 hr) of the same compound?
**A.** The Diameter of colony was 0.50 mm and 0.40 mm.

**Q.** And the Diameter of colony ([2]; 34° C., 45 hr)?
**A.** The Diameter of colony was 0.70 mm and 0.50 mm.

**Q.** And the Diameter of colony ([2]; 34° C., 48 hr)?
**A.** The Diameter of colony was 1.00 mm and 0.75 mm.

**Q.** What about the Diameter of colony ([2]; 34° C., 52 hr) of the same compound?
**A.** The Diameter of colony was 1.00 mm.

**Q.** What about the Diameter of colony ([2]; 34° C., 66 hr) of the same compound?
**A.** The Diameter of colony was 1.25 mm and 1.00 mm.

**Q.** And the “colony formation after 24 hours” value ([2]; parent strain KMBS16, minimal medium plate containing 2000 mg/L of 6-ethoxypurine, 34° C., 24 hours)?
**A.** The value was “no colony was confirmed”.

**Q.** What about the Relative growth degree ([3]; 0 hr) of the same compound?
**A.** The Relative growth degree was 0%.

**Q.** And the Relative growth degree ([3]; 42 hr)?
**A.** The Relative growth degree was 100.0%.

**Q.** And the Diameter of colony ([3]; 34° C., 28 hr)?
**A.** Its Diameter of colony is “±”.

**Q.** What about the Diameter of colony ([3]; 34° C., 42 hr) of the same compound?
**A.** The Diameter of colony was 1.00 mm.

**Q.** What about the Diameter of colony ([3]; 34° C., 45 hr) of the same compound?
**A.** Its Diameter of colony is 1.20 mm.

**Q.** And the Diameter of colony ([3]; 34° C., 48 hr)?
**A.** The Diameter of colony was 1.50 mm.

**Q.** And the Diameter of colony ([3]; 34° C., 52 hr)?
**A.** The Diameter of colony was 1.50 mm.

**Q.** And the Diameter of colony ([3]; 34° C., 66 hr)?
**A.** The Diameter of colony was 2.00 mm.

**Q.** And the “colony formation after 24 hours” value ([3]; EP2 strain, minimal medium plate containing 2000 mg/L of 6-ethoxypurine, 34° C., 24 hours)?
**A.** The value was “minute colonies were confirmed”.
